This note sets out measurements from ChEMBL document CHEMBL5634143, “Development of teixobactin analogues containing hydrophobic, non-proteogenic amino acids that are highly potent against multidrug-resistant bacteria and biofilms” (Eur J Med Chem, 2023).

Values after ≈ are worked out from the molar mass of the structure shown. Active and inactive are the calls of the source.

Assay [1] relates to Staphylococcus saprophyticus. As to the kind of experiment: Antibacterial activity against Staphylococcus saprophyticus ATCC BAA 750 assessed as inhibition of bacterial growth. The assay is classed as functional.
The subject of assay [2] is Staphylococcus saprophyticus. Description: Antibacterial activity against Staphylococcus saprophyticus ATCC 15305 assessed as inhibition of bacterial growth. It counts as functional.
Assay [3] concerns Staphylococcus saprophyticus. As to the kind of experiment: Antibacterial activity against Staphylococcus saprophyticus ATCC 49453 assessed as inhibition of bacterial growth. The assay is classed as functional.
The subject of assay [4] is Staphylococcus saprophyticus. As to the kind of experiment: Antibacterial activity against Staphylococcus saprophyticus ATCC 49907 assessed as inhibition of bacterial growth. The assay is classed as functional.
Assay [5] concerns Enterococcus faecium. Description: Antibacterial activity against Vancomycin-resistant Enterococcus faecium 1014 assessed as inhibition of bacterial growth. The assay is classed as functional.
The test system of assay [6] is Enterococcus faecium. Description: Antibacterial activity against Vancomycin-resistant Enterococcus […] ATCC 700802 assessed as inhibition of bacterial growth. It counts as functional.
Assay [7] deals with Enterococcus faecium. Description: Antibacterial activity against Vancomycin-resistant Enterococcus […] ATCC 29212 assessed as inhibition of bacterial growth. The assay is classed as functional. Particulars: Enterococcus faecalis.
Assay [8] concerns Staphylococcus aureus. Description: Antibacterial activity against methicilin-resistant Staphylococcus aureus ATCC 700699 assessed as inhibition of bacterial growth. It counts as functional.
Assay [9] relates to Staphylococcus aureus. As to the kind of experiment: Antibacterial activity against methicilin-resistant Staphylococcus aureus 42412 assessed as inhibition of bacterial growth. It counts as functional.
Assay [10] concerns Staphylococcus aureus. As to the kind of experiment: Antibacterial activity against methicilin-resistant Staphylococcus aureus 21455 assessed as inhibition of bacterial growth. The assay is classed as functional.
Assay [11] deals with Staphylococcus aureus. As to the kind of experiment: Antibacterial activity against methicilin-resistant Staphylococcus aureus 1003 assessed as inhibition of bacterial growth. The assay is classed as functional.
Assay [12] deals with Staphylococcus aureus. Description: Antibacterial activity against Staphylococcus aureus 29213 assessed as inhibition of bacterial growth. It counts as functional.
Assay [13] deals with Staphylococcus aureus. As to the kind of experiment: Antibacterial activity against Staphylococcus aureus 4299 assessed as inhibition of bacterial growth. The assay is classed as functional.
Assay [14] relates to Staphylococcus epidermidis. Description: Antibacterial activity against Staphylococcus epidermidis 12228 assessed as inhibition of bacterial growth. The assay is classed as functional.
A further assay relates to Bacillus cereus. Description: Antibacterial activity against Bacillus cereus ATCC 11788 assessed as inhibition of bacterial growth. The assay is classed as functional.
The test system of another assay is Bacillus subtilis. As to the kind of experiment: Antibacterial activity against Bacillus subtilis ATCC 6633 assessed as inhibition of bacterial growth. It counts as functional.
The subject of assay [15] is Staphylococcus epidermidis. As to the kind of experiment: Antibacterial activity against Staphylococcus epidermidis 1457 assessed as inhibition of biofilm formation at 10 ug/ml incubated for 5 hrs by confocal microscopic analysis. The assay is classed as functional, organism-based. Particulars: dose 10.0 µg/ml.
Assay [16] concerns Staphylococcus aureus. Description: Antibacterial activity against Staphylococcus aureus 15981 assessed as inhibition of biofilm formation at 10 ug/ml incubated for 5 hrs by confocal microscopic analysis. The assay is classed as functional, organism-based. Particulars: dose 10.0 µg/ml.

What is called MIC is the smallest concentration in the dilution series that meets the test's criterion for growth inhibition. In the case of `CCC[C@@H]1NC(=O)[C@H](C)NC(=O)[C@H](NC(=O)[C@H](CO)NC(=O)[C@@H](NC(=O)[C@H](NC(=O)[C@@H](CCC(N)=O)NC(=O)[C@H](CCCNC(=N)N)NC(=O)[C@@H](NC(=O)[C@@H](Cc2ccccc2)NC)[C@@H](C)CC)[C@@H](C)CC)[C@@H](C)CC)[C@H](C)OC(=O)[C@H]([C@@H](C)CC)NC1=O`, the minimal inhibitory concentration (MIC) in assay [1] was 0.063 µg/mL (≈ 0.0501 µM); in assay [2], 0.063 µg/mL (≈ 0.0501 µM); in assay [3], 0.063 µg/mL (≈ 0.0501 µM); in assay [4], 0.063 µg/mL (≈ 0.0501 µM); with Enterococcus faecium [5], 1 µg/mL (≈ 0.796 µM); in the assay with Enterococcus faecium [6], 1 µg/mL (≈ 0.796 µM). For the same molecule, the minimum inhibitory concentration (MIC) with Enterococcus faecium [7] turned out to be 2 µg/mL (≈ 1.59 µM); in the assay with Staphylococcus aureus [8] it was 0.25 µg/mL (≈ 0.199 µM); with Staphylococcus aureus [9] it was 0.063 µg/mL (≈ 0.0501 µM); in the assay with Staphylococcus aureus [10], 0.063 µg/mL (≈ 0.0501 µM); in the assay on Staphylococcus aureus [11] it was 0.125 µg/mL (≈ 0.0995 µM); in the assay on Staphylococcus aureus [12], 0.125 µg/mL (≈ 0.0995 µM). Besides, the minimal inhibitory concentration (MIC) (in the assay on Staphylococcus aureus [13]; in assay [14]; in the assay with Bacillus cereus; with Bacillus subtilis) was 0.063 µg/mL (≈ 0.0501 µM) throughout.

Consider `CCC[C@@H]1NC(=O)[C@H](CCCNC(=N)N)NC(=O)[C@H](NC(=O)[C@H](CO)NC(=O)[C@@H](NC(=O)[C@H](NC(=O)[C@@H](CCCNC(=N)N)NC(=O)[C@H](CO)NC(=O)[C@@H](NC(=O)[C@@H](Cc2ccccc2)NC)[C@@H](C)CC)[C@@H](C)CC)[C@@H](C)CC)[C@H](C)OC(=O)[C@H]([C@@H](C)CC)NC1=O`, for which the MIC was 0.063 µg/mL (≈ 0.0484 µM) in [1]; 0.063 µg/mL (≈ 0.0484 µM) in assay [2]; 0.063 µg/mL (≈ 0.0484 µM) in assay [3]; 0.063 µg/mL (≈ 0.0484 µM) in [4]; 2 µg/mL (≈ 1.54 µM) with Enterococcus faecium [5]; 1 µg/mL (≈ 0.769 µM) in the assay on Enterococcus faecium [6]. Also, the minimal inhibitory concentration (MIC) in the assay with Enterococcus faecium [7] was found to be 2 µg/mL (≈ 1.54 µM); in the assay on Staphylococcus aureus [8] it was 0.5 µg/mL (≈ 0.384 µM); with Staphylococcus aureus [9], 0.125 µg/mL (≈ 0.0961 µM); with Staphylococcus aureus [10], 0.5 µg/mL (≈ 0.384 µM); with Staphylococcus aureus [11] it was 1 µg/mL (≈ 0.769 µM); in the assay on Staphylococcus aureus [12] it was 0.25 µg/mL (≈ 0.192 µM). For the same molecule, the MIC was determined as 0.063 µg/mL (≈ 0.0484 µM) with Staphylococcus aureus [13], 0.063 µg/mL (≈ 0.0484 µM) in [14], 1 µg/mL (≈ 0.769 µM) with Bacillus cereus and 0.5 µg/mL (≈ 0.384 µM) in the assay on Bacillus subtilis.

As for `CCC[C@@H]1NC(=O)[C@H](C)NC(=O)[C@H](NC(=O)[C@H](CO)NC(=O)[C@@H](NC(=O)[C@H](NC(=O)[C@@H](CCCNC(=N)N)NC(=O)[C@H](CO)NC(=O)[C@@H](NC(=O)[C@@H](Cc2ccccc2)NC)[C@@H](C)CC)[C@@H](C)CC)[C@@H](C)CC)[C@H](C)OC(=O)[C@H]([C@@H](C)CC)NC1=O`, the minimum inhibitory concentration (MIC) in assay [1] was determined as 0.063 µg/mL (≈ 0.0518 µM); in assay [2], 0.063 µg/mL (≈ 0.0518 µM); in assay [3], 0.063 µg/mL (≈ 0.0518 µM); in [4], 0.063 µg/mL (≈ 0.0518 µM); in the assay with Enterococcus faecium [5] it was 1 µg/mL (≈ 0.823 µM); in the assay on Enterococcus faecium [6], 0.5 µg/mL (≈ 0.411 µM). Further, the minimum inhibitory concentration (MIC) stood at 1 µg/mL (≈ 0.823 µM) with Enterococcus faecium [7]; 0.063 µg/mL (≈ 0.0518 µM) in the assay on Staphylococcus aureus [8]; 0.063 µg/mL (≈ 0.0518 µM) in the assay with Staphylococcus aureus [9]; 0.125 µg/mL (≈ 0.103 µM) in the assay on Staphylococcus aureus [10]; 0.125 µg/mL (≈ 0.103 µM) in the assay on Staphylococcus aureus [11]; 0.125 µg/mL (≈ 0.103 µM) in the assay with Staphylococcus aureus [12]. For the same molecule, the minimal inhibitory concentration (MIC) turned out to be 0.063 µg/mL (≈ 0.0518 µM) in the assay on Staphylococcus aureus [13], 0.063 µg/mL (≈ 0.0518 µM) in assay [14], 0.5 µg/mL (≈ 0.411 µM) with Bacillus cereus and 0.063 µg/mL (≈ 0.0518 µM) in the assay on Bacillus subtilis.

With `CN[C@H](CC(C)C)C(=O)N[C@H]1C(=O)N[C@@H](CC(N)=O)C(=O)N[C@H]2C(=O)N[C@H]3C(=O)N[C@H](C(=O)N[C@H](C(=O)O)c4cc(O)cc(O)c4-c4cc3ccc4O)[C@H](O)c3ccc(c(Cl)c3)Oc3cc2cc(c3O[C@@H]2O[C@H](CO)[C@@H](O)[C@H](O)[C@H]2O[C@H]2C[C@](C)(N)[C@H](O)[C@H](C)O2)Oc2ccc(cc2Cl)[C@H]1O`, the outcome (in assay [15]; with Staphylococcus aureus [16]) was Active.

On to `CC[C@H](C)[C@H](NC(=O)[C@@H](Cc1ccccc1)NC)C(=O)N[C@@H](CO)C(=O)N[C@H](CCCNC(=N)N)C(=O)N[C@@H](C(=O)N[C@H](C(=O)N[C@@H](CO)C(=O)N[C@H]1C(=O)N[C@@H](CCCNC(=N)N)C(=O)N[C@@H](C2CCCCC2)C(=O)N[C@@H]([C@@H](C)CC)C(=O)O[C@H]1C)[C@@H](C)CC)[C@@H](C)CC`, for which the MIC in assay [1] was 0.125 µg/mL (≈ 0.0932 µM); in assay [2] it was less than 0.063 µg/mL; in assay [3], 0.063 µg/mL (≈ 0.047 µM); in assay [4], 0.063 µg/mL (≈ 0.047 µM); with Enterococcus faecium [5], 1 µg/mL (≈ 0.746 µM); in the assay with Enterococcus faecium [6], 1 µg/mL (≈ 0.746 µM). In addition, the minimum inhibitory concentration (MIC) stood at 1 µg/mL (≈ 0.746 µM) in the assay with Enterococcus faecium [7]; 0.5 µg/mL (≈ 0.373 µM) in the assay with Staphylococcus aureus [8]; 0.125 µg/mL (≈ 0.0932 µM) in the assay with Staphylococcus aureus [9]; 0.25 µg/mL (≈ 0.186 µM) in the assay on Staphylococcus aureus [10]; 0.5 µg/mL (≈ 0.373 µM) in the assay with Staphylococcus aureus [11]; 0.5 µg/mL (≈ 0.373 µM) in the assay with Staphylococcus aureus [12]. The MIC with Staphylococcus aureus [13] was found to be 0.5 µg/mL (≈ 0.373 µM); in [14], 0.063 µg/mL (≈ 0.047 µM); in the assay with Bacillus cereus, 1 µg/mL (≈ 0.746 µM); in the assay on Bacillus subtilis, 0.063 µg/mL (≈ 0.047 µM).

With `CC[C@H](C)[C@H](NC(=O)[C@@H](Cc1ccccc1)NC)C(=O)N[C@@H](CCCNC(=N)N)C(=O)N[C@H](CCC(N)=O)C(=O)N[C@@H](C(=O)N[C@H](C(=O)N[C@@H](CO)C(=O)N[C@H]1C(=O)N[C@@H](C)C(=O)N[C@@H](C2CCCCC2)C(=O)N[C@@H]([C@@H](C)CC)C(=O)O[C@H]1C)[C@@H](C)CC)[C@@H](C)CC`, the minimum inhibitory concentration (MIC) was 0.063 µg/mL (≈ 0.0486 µM) in [1]; less than 0.063 µg/mL in assay [2]; less than 0.063 µg/mL in assay [3]; 0.063 µg/mL (≈ 0.0486 µM) in [4]; 0.063 µg/mL (≈ 0.0486 µM) in the assay on Enterococcus faecium [5]; 0.063 µg/mL (≈ 0.0486 µM) in the assay on Enterococcus faecium [6]. Besides, the minimum inhibitory concentration (MIC) amounted to 0.125 µg/mL (≈ 0.0964 µM) in the assay with Enterococcus faecium [7]; 0.063 µg/mL (≈ 0.0486 µM) in the assay on Staphylococcus aureus [8]; 0.063 µg/mL (≈ 0.0486 µM) with Staphylococcus aureus [9]; 0.125 µg/mL (≈ 0.0964 µM) in the assay with Staphylococcus aureus [10]; 0.063 µg/mL (≈ 0.0486 µM) in the assay with Staphylococcus aureus [11]; 0.063 µg/mL (≈ 0.0486 µM) in the assay on Staphylococcus aureus [12]. The MIC (with Staphylococcus aureus [13]; in assay [14]; with Bacillus cereus; in the assay with Bacillus subtilis) was 0.063 µg/mL (≈ 0.0486 µM) in each case.

Regarding `COc1c(N2C[C@@H]3CCCN[C@@H]3C2)c(F)cc2c(=O)c(C(=O)O)cn(C3CC3)c12` [MOXIFLOXACIN], the minimal inhibitory concentration (MIC) is 0.25 µg/mL (≈ 0.623 µM) in assay [1]; 0.25 µg/mL (≈ 0.623 µM) in assay [2]; 0.25 µg/mL (≈ 0.623 µM) in assay [3]; 0.125 µg/mL (≈ 0.311 µM) in assay [4]; 16 µg/mL (≈ 39.9 µM) in the assay with Enterococcus faecium [5]; 0.25 µg/mL (≈ 0.623 µM) with Enterococcus faecium [6]. The MIC worked out at 0.25 µg/mL (≈ 0.623 µM) in the assay on Enterococcus faecium [7]; 4 µg/mL (≈ 9.96 µM) in the assay with Staphylococcus aureus [8]; 4 µg/mL (≈ 9.96 µM) with Staphylococcus aureus [9]; 4 µg/mL (≈ 9.96 µM) in the assay with Staphylococcus aureus [10]; 4 µg/mL (≈ 9.96 µM) in the assay with Staphylococcus aureus [11]; 0.063 µg/mL (≈ 0.157 µM) in the assay on Staphylococcus aureus [12]. For the same molecule, the MIC in the assay with Staphylococcus aureus [13] was 0.125 µg/mL (≈ 0.311 µM); in assay [14] it was 0.063 µg/mL (≈ 0.157 µM); in the assay with Bacillus cereus it was 0.125 µg/mL (≈ 0.311 µM); in the assay with Bacillus subtilis, 0.031 µg/mL (≈ 0.0772 µM).
